{"source": "patent US20240115649A1", "about": "“CASPASE INHIBITION TO ENHANCE REGENERATION AND REPAIR AFTER SKIN OR GUT INJURY AND TO TREAT BACTERIAL OR VIRAL INFECTIONS” (The Johns Hopkins University, priority 2020, published 2024)", "molecules": {"B1": {"name": "rmIL-36a: recombinant mouse IL-36α protein (R&D Systems, 7059-ML/CF) (protein, UniProt Q9JLA2 8-160, looked up)", "Interleukin-36 alpha": "RAASPSLRHVQDLSSRVWILQNNILTAVPRKEQTVPVTITLLPCQYLDTLETNRGDPTYMGVQRPMSCLFCTKDGEQPVLQLGEGNIMEMYNKKEPVKASLFYHKKSGTTSTFESAAFPGWFIAVCSKGSCPLILTQELGEIFITDFEMIVVH"}, "B2": {"name": "recombinant IL-36α: recombinant IL-36α used to treat human keratinocytes (protein, UniProt Q9UHA7 6-158, looked up)", "Interleukin-36 alpha": "KIDTPQQGSIQDINHRVWVLQDQTLIAVPRKDRMSPVTIALISCRHVETLEKDRGNPIYLGLNGLNLCLMCAKVGDQPTLQLKEKDIMDLYNQPEPVKSFLFYHSQSGRNSTFESVAFPGWFIAVSSEGGCPLILTQELGKANTTDFGLTMLF"}}, "key": {"[1]": {"test_system": "mouse epithelial keratinocytes", "experiment": "Mouse epithelial keratinocyte culture (qRT-PCR, immunoblot)", "settings": "for IL-36α protein (whole-cell lysates): mouse epithelial keratinocytes"}, "[2]": {"test_system": "BMDMs", "experiment": "BMDM cultures with live S. aureus ± caspase inhibitors", "settings": "live S. aureus 6 hours, Q-VD-OPH 10 μg/mL, Emricasan 9 μg/mL"}, "[3]": {"test_system": "mouse neutrophils", "experiment": "Neutrophil cultures with live S. aureus ± caspase inhibitors", "settings": "live S. aureus 6 hours, Q-VD-OPH 10 μg/mL, Emricasan 9 μg/mL"}, "[4]": {"test_system": "neogenic hair follicles", "experiment": "Wound Induced Hair Neogenesis (WIHN) assay", "format": "in vivo, mice", "method": "Wound Induced Hair Neogenesis (WIHN) Assay. All in vivo experimental surgical procedures were performed as previously characterized ^1,2,6-8. In short, after exposure to vaporizing anesthesia (Baxter, Isoflurane) the dorsal side of male and female 3-week-old (21 days) mice were shaved at approximately 8-10 g of weight. Using surgical scissors, approximately 1.26 cm^2×1.25 cm^2 of skin was excised creating wounds deep into the fascia. At 3 days post-wounding, a single dose (50 μl) of 100 μg/mL high molecular weight (HMW) polyinosinic-polycytidylic acid (Poly (I:C)) (Invivogen, tlrl-pic) was administered underneath the scab site via injection in both wild-type and transgenic mice as previously described^2,8. For functional experiments characterizing IL-36 on WIHN, a single dose (50 μl) of 1 μg/mL recombinant mouse IL-36α protein (R&D Systems, 7059-ML/CF) was injected underneath the scab site at 7 days post-wounding. For rescue experiments using the small molecule, broad spectrum pan-caspase inhibitor, 20 ul of 5 mg/mL Q-VD-OPh (in DMSO) was diluted 130 μL of phosphate-buffered saline (PBS) (1.33 mM final concentration) and injected intraperitoneally in mice 24 hours prior to wounding and approximately 10 days after wounding (scab detachment).\nImmunofluorescence, immunocytochemistry, and immunohistochemistry."}, "[5]": {"test_system": "human keratinocytes", "experiment": "Human keratinocyte culture (qRT-PCR, immunostaining)", "experimental": "Human and Mouse Keratinocyte Isolation and Culture.\nQuantitative real-time PCR (qRT-PCR).\nImmunofluorescence, immunocytochemistry, and immunohistochemistry. […] After washing and permeabilization in TBS-T universal buffer (0.2% Triton X-100 in tris-buffered saline), sections were blocked at room-temperature in 5% goat, donkey or fetal bovine serum with 1% bovine serum albumin. […] Following subsequent washing, sections were incubated in fluorescent-dye conjugated secondary antibodies diluted in antibody diluent for 1 hour at room temperature. After final washing, sections were mounted with […] ® Hardset™ Antifade Mounting Medium with DAPI (Vector Laboratories, H-1500) for nuclear staining. Human keratinocytes were prepared similarly, with the exception of antigen retrieval. All slides were imaged using either the DFC365FX (Leica) or Eclipse E-800 (Nikon) at 10×, 20×, and 40× magnifications."}, "[6]": {"settings": "no significant differences vs no treatment"}, "[7]": {"settings": "RNase L siRNA transfected human keratinocytes, 10 μg/ml"}}, "note": "Where a SMILES comes first, the peptide text is derived from it. The star is where a group is joined. Cbz = O=C(OCc1ccccc1)*; CH2F = FC*", "data": [{"molecule": "COC(=O)CC[C@H](NC(=O)[C@H](Cc1c[nH]c2ccccc12)NC(=O)OCc1ccccc1)C(=O)N[C@@H](Cc1cnc[nH]1)C(=O)N[C@@H](CC(=O)OC)C(=O)CF", "note": "[Z-WEHD-FMK] (Cbz-WE(OMe)HD(OMe)-CH2F)", "values": [{"measurement": "IL-36 receptor (IL36r) expression", "setting": "[1]; 48 hrs treatment", "result": "not affected"}, {"measurement": "IL-36 receptor antagonist (IL-36m) protein or mRNA levels", "setting": "[1]; 48 hrs treatment", "result": "not affected"}, {"measurement": "Tlr3 expression", "setting": "[1]; 48 hrs treatment", "result": "elevated"}, {"measurement": "caspase gene mRNA (inflammatory caspases 1 and 4)", "setting": "[1]; 48 hrs treatment", "result": "elevated"}, {"measurement": "IL-36α protein (whole-cell lysates)", "setting": "[1]", "result": "increased"}]}, {"molecule": "C[C@H](NC(=O)C(=O)Nc1ccccc1C(C)(C)C)C(=O)N[C@@H](CC(=O)O)C(=O)COc1c(F)c(F)cc(F)c1F", "note": "[Emricasan]", "values": [{"measurement": "percentages of TNF+ BMDMs", "setting": "[2]", "result": 33.53, "unit": "%"}, {"measurement": "viable cells (Zombie UV negative cells)", "setting": "[2]; [6]", "result": "~80", "unit": "%"}, {"measurement": "IL-36α protein (whole-cell lysates)", "setting": "[1]", "result": "increased"}, {"measurement": "percentages of TNF+ neutrophils", "setting": "[3]", "result": 25.47, "unit": "%"}, {"measurement": "viable cells (Zombie UV negative cells)", "setting": "[3]; [6]", "result": "~50", "unit": "%"}]}, {"molecule": "polyinosinic-polycytidylic acid [poly (I:C)]", "values": [{"measurement": "WIHN (hair follicle regeneration)", "setting": "[4]; Il36r^−/− mice", "result": "not responsive"}, {"measurement": "WIHN", "setting": "[4]; Rnasel^−/− mice, poly (I:C) under the scab 3 days post-wounding", "result": "intact super-increase"}, {"measurement": "differentiation markers", "setting": "[5]; [7]", "result": "inhibits differentiation markers"}, {"measurement": "morphogenesis markers", "setting": "[5]; [7]", "result": "induces multiple morphogenesis markers"}, {"measurement": "Il36α and Casp1 levels", "setting": "[1]; after siRNA-mediated RNase L loss, poly (I:C) 10 μg/ml, 48 hrs", "result": "boosted"}]}, {"molecule": "CC(C)(O)c1coc(S(=O)(=O)NC(=O)Nc2c3c(cc4c2CCC4)CCC3)c1", "note": "[MCC950]", "values": [{"measurement": "regeneration (morphogenesis) markers", "setting": "[5]; MCC950 100 μM, further increased by exogenous dsRNA addition", "result": "greater regeneration markers than controls"}]}, {"molecule": "B1", "values": [{"measurement": "increase in the number of neogenic hair follicles", "setting": "[4]; 50 μl of 1 μg/mL injected underneath the scab at 7 days post-wounding, vs vehicle-treated controls", "result": "> 2", "unit": "fold"}]}, {"molecule": "B2", "values": [{"measurement": "WNT7B mRNA expression", "setting": "[5]; qRT-PCR", "result": "promotes WNT7B expression"}]}]}
